Assay results as given in ChEMBL document CHEMBL3774333, “Identification of SNAIL1 Peptide-Based Irreversible Lysine-Specific Demethylase 1-Selective Inactivators” (J Med Chem, 2016).
One block for each compound: values may come before it. Activity calls are given as the source filed them. The calls are words filed in the database; no cut-off is given here. *1 amine or outer side, *2 acyl side, *3 side chain or, on linkers, in order; H or OH if unused. Where a SMILES comes first, the peptide text is derived from it. [ ]: non-standard residue; d: D form. X2 = CNNCCC[C@H](N[*:1])C(=O)[*:2]

What was measured:
HeLa [1] = assay: Antiproliferative activity against human HeLa cells assessed as reduction in cell viability at 25 to 100 uM treated for 24 hrs measured after 48 hrs by alamar blue assay in absence of fetal bovine serum; type: functional, cell-based
[2] = target: T1, Lysine-specific histone demethylase 2 (Homo sapiens, UniProt Q8NB78); assay: biochemical
T1 sequence (Q8NB78 whole entry): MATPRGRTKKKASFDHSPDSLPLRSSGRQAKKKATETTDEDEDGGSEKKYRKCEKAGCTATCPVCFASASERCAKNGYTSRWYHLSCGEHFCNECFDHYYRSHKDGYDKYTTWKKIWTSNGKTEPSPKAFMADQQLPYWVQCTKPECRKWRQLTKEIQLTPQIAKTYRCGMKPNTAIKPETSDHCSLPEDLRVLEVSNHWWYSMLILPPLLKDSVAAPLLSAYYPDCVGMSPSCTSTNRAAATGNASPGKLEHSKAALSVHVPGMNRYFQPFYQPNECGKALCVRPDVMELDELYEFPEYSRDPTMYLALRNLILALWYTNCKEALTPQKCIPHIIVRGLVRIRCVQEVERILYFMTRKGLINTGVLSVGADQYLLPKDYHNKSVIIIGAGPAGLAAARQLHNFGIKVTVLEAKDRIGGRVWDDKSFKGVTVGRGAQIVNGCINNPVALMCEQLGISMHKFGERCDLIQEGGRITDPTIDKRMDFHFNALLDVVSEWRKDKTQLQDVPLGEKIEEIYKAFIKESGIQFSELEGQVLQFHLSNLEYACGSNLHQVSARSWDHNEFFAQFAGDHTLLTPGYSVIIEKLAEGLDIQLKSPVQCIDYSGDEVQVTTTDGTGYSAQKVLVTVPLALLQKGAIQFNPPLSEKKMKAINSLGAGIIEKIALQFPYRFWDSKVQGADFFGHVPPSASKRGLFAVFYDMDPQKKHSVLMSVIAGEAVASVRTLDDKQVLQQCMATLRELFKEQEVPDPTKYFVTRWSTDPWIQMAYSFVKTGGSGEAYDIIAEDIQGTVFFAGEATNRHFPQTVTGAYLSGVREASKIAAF
Description: Inhibition of full length N-terminal His-tagged human LSD2 (1 to 822 residues) expressed in Escherichia coli BL21(DE3) cells using H3K4me2 peptide substrate by MALDI-TOF mass spectrometric analysis

[3] = target: T2, Lysine-specific histone demethylase 2 (Homo sapiens) (UniProt Q8NB78); assay: Inhibition of LSD2 in human HeLa cells assessed as H3K4me1/H3 ratio at 5 uM after 24 hrs by Western blot analysis in absence of fetal bovine serum; type: cell-based
T2 sequence (whole entry): T1 sequence (Q8NB78 whole entry)

[4] = target: T3, Lysine-specific demethylase 5A (Homo sapiens, UniProt P29375); assay: Inhibition of JARID1A in human HeLa cells assessed as H3K4me3/H3 ratio at 20 uM after 24 hrs by Western blot analysis in absence of fetal bovine serum; type: cell-based
T3 sequence (P29375 whole entry): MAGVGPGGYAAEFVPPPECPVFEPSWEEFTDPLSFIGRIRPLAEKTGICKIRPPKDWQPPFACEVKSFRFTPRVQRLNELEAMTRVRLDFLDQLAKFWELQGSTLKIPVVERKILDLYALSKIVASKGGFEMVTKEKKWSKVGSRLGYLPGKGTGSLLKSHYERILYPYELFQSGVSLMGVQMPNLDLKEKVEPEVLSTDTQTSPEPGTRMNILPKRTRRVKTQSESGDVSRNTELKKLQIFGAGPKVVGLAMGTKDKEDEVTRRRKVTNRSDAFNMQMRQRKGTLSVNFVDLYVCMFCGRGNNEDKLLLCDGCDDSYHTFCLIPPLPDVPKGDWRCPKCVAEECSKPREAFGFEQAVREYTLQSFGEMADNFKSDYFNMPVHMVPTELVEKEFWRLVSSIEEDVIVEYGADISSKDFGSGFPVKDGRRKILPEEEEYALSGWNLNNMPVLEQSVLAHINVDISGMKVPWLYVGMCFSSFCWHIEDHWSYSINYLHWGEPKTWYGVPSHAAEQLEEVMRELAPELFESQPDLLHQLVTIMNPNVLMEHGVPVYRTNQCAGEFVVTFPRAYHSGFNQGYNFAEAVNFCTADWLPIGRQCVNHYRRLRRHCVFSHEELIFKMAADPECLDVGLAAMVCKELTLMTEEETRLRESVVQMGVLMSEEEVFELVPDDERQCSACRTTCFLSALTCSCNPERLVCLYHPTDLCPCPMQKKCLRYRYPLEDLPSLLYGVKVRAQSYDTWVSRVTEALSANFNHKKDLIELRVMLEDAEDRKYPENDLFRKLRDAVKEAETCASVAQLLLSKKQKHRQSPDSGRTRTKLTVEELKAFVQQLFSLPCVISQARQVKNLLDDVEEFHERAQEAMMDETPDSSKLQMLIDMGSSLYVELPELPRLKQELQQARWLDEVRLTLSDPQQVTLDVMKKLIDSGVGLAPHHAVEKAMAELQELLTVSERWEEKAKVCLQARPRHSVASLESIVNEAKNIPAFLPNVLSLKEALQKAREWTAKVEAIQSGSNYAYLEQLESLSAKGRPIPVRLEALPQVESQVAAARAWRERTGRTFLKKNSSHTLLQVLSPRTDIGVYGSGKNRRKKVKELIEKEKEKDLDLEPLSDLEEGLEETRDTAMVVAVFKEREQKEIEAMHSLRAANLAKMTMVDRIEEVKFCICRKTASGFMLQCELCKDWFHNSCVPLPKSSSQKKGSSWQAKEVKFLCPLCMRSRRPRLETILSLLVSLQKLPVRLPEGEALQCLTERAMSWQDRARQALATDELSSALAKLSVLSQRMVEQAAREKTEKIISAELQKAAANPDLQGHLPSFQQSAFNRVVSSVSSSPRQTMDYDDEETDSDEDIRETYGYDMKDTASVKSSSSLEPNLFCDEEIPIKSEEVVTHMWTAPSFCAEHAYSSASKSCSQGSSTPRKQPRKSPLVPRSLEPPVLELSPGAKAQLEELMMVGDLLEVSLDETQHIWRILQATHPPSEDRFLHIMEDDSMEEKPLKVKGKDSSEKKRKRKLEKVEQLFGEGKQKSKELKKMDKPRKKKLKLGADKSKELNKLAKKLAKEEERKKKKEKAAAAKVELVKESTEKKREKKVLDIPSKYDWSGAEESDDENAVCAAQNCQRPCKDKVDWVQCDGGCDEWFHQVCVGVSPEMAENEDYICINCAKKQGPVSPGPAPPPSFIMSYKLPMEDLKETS

[5] = target: T4, Lysine-specific histone demethylase 1A (Homo sapiens, UniProt O60341); assay: Inhibition of LSD1 in human HeLa cells assessed as H3K4me2/H3 ratio at 10 uM after 24 hrs by Western blot analysis in absence of fetal bovine serum; type: cell-based
Homo sapiens [6] = species: Homo sapiens
[7] = target: T4, Lysine-specific histone demethylase 1A; assay: Inhibition of LSD1 in human HeLa cells assessed as H3K4me2/H3 ratio at 20 uM after 24 hrs by Western blot analysis in absence of fetal bovine serum; type: cell-based
[8] = target: T5, Amine oxidase [flavin-containing] A (Homo sapiens, UniProt P21397); assay: biochemical
T5 sequence (P21397 whole entry): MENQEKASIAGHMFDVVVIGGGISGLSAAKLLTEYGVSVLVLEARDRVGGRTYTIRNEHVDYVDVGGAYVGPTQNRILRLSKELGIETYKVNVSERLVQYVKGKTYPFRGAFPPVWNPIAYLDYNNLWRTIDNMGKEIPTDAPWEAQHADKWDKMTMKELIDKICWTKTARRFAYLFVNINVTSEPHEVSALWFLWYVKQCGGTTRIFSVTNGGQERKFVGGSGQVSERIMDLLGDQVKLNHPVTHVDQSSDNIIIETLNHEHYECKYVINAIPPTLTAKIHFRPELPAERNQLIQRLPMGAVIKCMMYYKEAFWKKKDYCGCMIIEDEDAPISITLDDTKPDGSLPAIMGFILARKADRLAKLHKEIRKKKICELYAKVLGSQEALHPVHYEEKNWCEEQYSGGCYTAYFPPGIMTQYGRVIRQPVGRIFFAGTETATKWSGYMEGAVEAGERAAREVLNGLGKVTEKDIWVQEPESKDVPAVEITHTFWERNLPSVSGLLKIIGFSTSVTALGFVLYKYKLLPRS
Description: Inhibition of human recombinant MAO-A expressed in baculovirus infected BTI insect cells using (4S)-4,5-dihydro-2-(6-hydroxybenzothiazolyl)-4-thiazolecarboxylic acid as substrate incubated for 60 mins by MAO-Glo assay

Homo sapiens [9] = species: Homo sapiens; remark: listed apart in the source
Homo sapiens [10] = species: Homo sapiens; remark: listed apart in the source
[11] = target: T3, Lysine-specific demethylase 5A; assay: Inhibition of JARID1A in human HeLa cells assessed as H3K4me3/H3 ratio at 5 uM after 24 hrs by Western blot analysis in absence of fetal bovine serum; type: cell-based
[12] = target: T4, Lysine-specific histone demethylase 1A; assay: Inhibition of LSD1 in human HeLa cells assessed as increase in H3K4me2 level after 24 hrs by Western blot analysis in absence of fetal bovine serum; type: cell-based
[13] = target: T4, Lysine-specific histone demethylase 1A; assay: biochemical
Description: Inhibition of full length N-terminal His-tagged human recombinant LSD1 (1 to 852 residues) expressed in Escherichia coli BL21(DE3) cells using H3K4me2 peptide as substrate preincubated for 5 mins followed by substrate addition measured for 30 mins by peroxidase coupled assay

[14] = target: T4, Lysine-specific histone demethylase 1A; assay: Inhibition of LSD1 in human HeLa cells assessed as H3K4me2/H3 ratio at 5 uM after 24 hrs by Western blot analysis in absence of fetal bovine serum; type: cell-based
[15] = target: T3, Lysine-specific demethylase 5A; assay: Inhibition of JARID1A in human HeLa cells assessed as H3K4me3/H3 ratio at 10 uM after 24 hrs by Western blot analysis in absence of fetal bovine serum; type: cell-based
[16] = target: T6, Amine oxidase [flavin-containing] B (Homo sapiens, UniProt P27338); assay: biochemical
T6 sequence (P27338 whole entry): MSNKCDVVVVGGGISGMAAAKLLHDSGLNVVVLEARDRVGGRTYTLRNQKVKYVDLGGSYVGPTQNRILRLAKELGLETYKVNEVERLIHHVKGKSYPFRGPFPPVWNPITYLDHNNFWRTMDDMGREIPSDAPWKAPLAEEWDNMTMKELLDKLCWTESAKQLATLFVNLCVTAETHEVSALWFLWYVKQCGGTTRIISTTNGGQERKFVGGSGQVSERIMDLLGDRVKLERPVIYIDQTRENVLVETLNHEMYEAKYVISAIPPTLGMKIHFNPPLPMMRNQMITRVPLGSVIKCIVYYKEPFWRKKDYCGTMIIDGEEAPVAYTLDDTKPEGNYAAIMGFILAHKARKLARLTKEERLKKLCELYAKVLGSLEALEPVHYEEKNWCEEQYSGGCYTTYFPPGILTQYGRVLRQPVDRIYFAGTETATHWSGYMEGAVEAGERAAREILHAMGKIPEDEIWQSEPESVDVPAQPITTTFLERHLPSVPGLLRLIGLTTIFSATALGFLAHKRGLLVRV
Description: Inhibition of human recombinant MAO-B expressed in baculovirus infected BTI insect cells using (4S)-4,5-dihydro-2-(6-hydroxybenzothiazolyl)-4-thiazolecarboxylic acid as substrate incubated for 60 mins by MAO-Glo assay

[17] = target: T3, Lysine-specific demethylase 5A
Description: Inhibition of JARID1A (unknown origin) using H3K4me3 peptide substrate preincubated for 5 mins followed by substrate addition by MALDI-TOF mass spectrometric analysis

[18] = target: T4, Lysine-specific histone demethylase 1A; conditions: 22 h
Description: Drug metabolism assessed as LSD1 (unknown origin)-mediated compound-FAD adduct formation after 22 hrs by MALDI-TOF mass spectrometric analysis

[19] = target: T2, Lysine-specific histone demethylase 2 (Homo sapiens); assay: Inhibition of LSD2 in human HeLa cells assessed as H3K4me1/H3 ratio at 20 uM after 24 hrs by Western blot analysis in absence of fetal bovine serum; type: cell-based
[20] = target: T2, Lysine-specific histone demethylase 2 (Homo sapiens); assay: Inhibition of LSD2 in human HeLa cells assessed as H3K4me1/H3 ratio at 10 uM after 24 hrs by Western blot analysis in absence of fetal bovine serum; type: cell-based
Homo sapiens [21] = species: Homo sapiens; remark: listed apart in the source
HeLa [22] = assay: Antiproliferative activity against human HeLa cells assessed as reduction in cell viability at 300 uM treated for 24 hrs measured after 48 hrs by alamar blue assay in absence of fetal bovine serum relative to control; type: functional
HeLa [23] = assay: Antiproliferative activity against human HeLa cells assessed as reduction in cell viability at 100 uM treated for 24 hrs measured after 48 hrs by alamar blue assay in absence of fetal bovine serum; type: functional, cell-based
[24] = target: T4, Lysine-specific histone demethylase 1A; assay: Drug metabolism assessed as LSD1 (unknown origin)-mediated demethylation of compound by measuring (3S,6S,9S,12S)-1-((S)-1-((S)-6-amino-2-((S)-2-((S)-4-amino-2-((S)-1-((S)-3-carboxy-2-((S)-2-((S)-1-((6S,9S,12S,15S,18S,21S,24S)-1,28-diamino-21-(3-guanidinopropyl)-12-(3-hydrazinylpropyl)-9-(hydroxymethyl)-1-imino-15-isobutyl-18-isopropyl-7,10,13,16,19,22-hexaoxo-6-((S)-pyrrolidine-2-carboxamido)-2,8,11,14,17,20,23-heptaazaoctacosanecarbonyl)pyrrolidine-2-carboxamido)-3-hydroxypropanamido)propanoyl)pyrrolidine-2-carboxamido)-4-oxobutanamido)-5-guanidinopentanamido)hexanoyl)pyrrolidin-2-yl)-3-(2-amino-2-oxoethyl)-12-carbamoyl-6-(4-hydroxybenzyl)-9-(hydroxymethyl)-1,4,7,10-tetraoxo-2,5,8,11-tetraazapentadecan-15-oic acid level after 22 hrs by MALDI-TOF mass spectrometric analysis; type: ADME

IC50 [2]: 13.2 µM | Ratio [3]: 1.01 | Ratio [4]: 0.98 | Ratio [5]: 1.9 | Ratio [7]: 2.19 | IC50 [8]: > 30 µM | Ratio [11]: 1.04 | inhibition [12]: Dose-dependent effect | IC50 [13]: 0.28 µM | Ratio [14]: 1.72 | Ratio [15]: 0.95 | IC50 [16]: 29 µM | IC50 [17]: 6.74 µM | Drug metabolism [18]: metabolite_detected | Ratio [19]: 1.08 | Ratio [20]: 0.98
SMILES: CC(C)C[C@H](NC(=O)[C@H](CCCNN)NC(=O)[C@H](CO)NC(=O)[C@@H](CCCNC(=N)N)NC(=O)[C@H]1CCCN1)C(=O)N[C@H](C(=O)N[C@@H](CCCNC(=N)N)C(=O)N[C@@H](CCCCNC(=O)[C@@H](CCCNC(=N)N)NC(=O)[C@@H](CCCNC(=N)N)NC(=O)[C@@H](CCCNC(=N)N)NC(=O)[C@@H](CCCNC(=N)N)NC(=O)[C@@H](CCCNC(=N)N)NC(=O)[C@@H](CCCNC(=N)N)NC(=O)[C@@H](CCCNC(=N)N)NC(=O)[C@@H](N)CCCNC(=N)N)C(=O)N1CCC[C@H]1C(=O)N[C@@H](CO)C(=O)N[C@@H](CC(=O)O)C(=O)N1CCC[C@H]1C(=O)N[C@@H](CC(N)=O)C(=O)N[C@@H](CCCNC(=N)N)C(=O)N[C@@H](CCCCN)C(=O)N1CCC[C@H]1C(=O)N[C@H](CC(N)=O)C(=O)N[C@@H](Cc1ccc(O)cc1)C(=O)N[C@@H](CO)C(=O)N[C@@H](CCC(N)=O)C(N)=O)C(C)C
Activity (HeLa [1]): Active | Ratio IC50 (Homo sapiens [6]): 16 | Ratio IC50 (Homo sapiens [9]): 23 | Ratio IC50 (Homo sapiens [10]): 94 | Ratio IC50 (Homo sapiens [21]): > 94

Ratio [7]: 2.03 | IC50 [13]: 0.61 µM
SMILES: O=C(O)c1ccc(CN2CCC(CN[C@H]3C[C@@H]3c3ccccc3)CC2)cc1
Activity (HeLa [22]): 9.96% | Activity (HeLa [23]): inactive

IC50 [2]: > 50 µM | IC50 [8]: > 30 µM | IC50 [13]: 8.4 µM | IC50 [16]: > 30 µM | IC50 [17]: > 50 µM | Drug metabolism [24]: metabolite_detected
SMILES: CNNCCC[C@H](NC(=O)[C@H](CO)NC(=O)[C@H](CCCNC(=N)N)NC(=O)[C@@H]1CCCN1)C(=O)N[C@@H](CC(C)C)C(=O)N[C@H](C(=O)N[C@@H](CCCNC(=N)N)C(=O)N[C@@H](CCCCN)C(=O)N1CCC[C@H]1C(=O)N[C@@H](CO)C(=O)N[C@@H](CC(=O)O)C(=O)N1CCC[C@H]1C(=O)N[C@@H](CC(N)=O)C(=O)N[C@@H](CCCNC(=N)N)C(=O)N[C@@H](CCCCN)C(=O)N1CCC[C@H]1C(=O)N[C@@H](CC(N)=O)C(=O)N[C@@H](Cc1ccc(O)cc1)C(=O)N[C@@H](CO)C(=O)N[C@@H](CCC(N)=O)C(N)=O)C(C)C (H-PRS[X2]LVRKPSDPNRKPNYSQ-NH2)
